Here are results for 19 molecules from ChEMBL document CHEMBL3991601, “The target landscape of clinical kinase drugs” (Science, 2017).

Activity calls are given as the source filed them.

The target of assay [1] is T1, ATP-dependent RNA helicase DHX30 (Homo sapiens, UniProt Q7L2E3).
T1 sequence (Q7L2E3 whole entry): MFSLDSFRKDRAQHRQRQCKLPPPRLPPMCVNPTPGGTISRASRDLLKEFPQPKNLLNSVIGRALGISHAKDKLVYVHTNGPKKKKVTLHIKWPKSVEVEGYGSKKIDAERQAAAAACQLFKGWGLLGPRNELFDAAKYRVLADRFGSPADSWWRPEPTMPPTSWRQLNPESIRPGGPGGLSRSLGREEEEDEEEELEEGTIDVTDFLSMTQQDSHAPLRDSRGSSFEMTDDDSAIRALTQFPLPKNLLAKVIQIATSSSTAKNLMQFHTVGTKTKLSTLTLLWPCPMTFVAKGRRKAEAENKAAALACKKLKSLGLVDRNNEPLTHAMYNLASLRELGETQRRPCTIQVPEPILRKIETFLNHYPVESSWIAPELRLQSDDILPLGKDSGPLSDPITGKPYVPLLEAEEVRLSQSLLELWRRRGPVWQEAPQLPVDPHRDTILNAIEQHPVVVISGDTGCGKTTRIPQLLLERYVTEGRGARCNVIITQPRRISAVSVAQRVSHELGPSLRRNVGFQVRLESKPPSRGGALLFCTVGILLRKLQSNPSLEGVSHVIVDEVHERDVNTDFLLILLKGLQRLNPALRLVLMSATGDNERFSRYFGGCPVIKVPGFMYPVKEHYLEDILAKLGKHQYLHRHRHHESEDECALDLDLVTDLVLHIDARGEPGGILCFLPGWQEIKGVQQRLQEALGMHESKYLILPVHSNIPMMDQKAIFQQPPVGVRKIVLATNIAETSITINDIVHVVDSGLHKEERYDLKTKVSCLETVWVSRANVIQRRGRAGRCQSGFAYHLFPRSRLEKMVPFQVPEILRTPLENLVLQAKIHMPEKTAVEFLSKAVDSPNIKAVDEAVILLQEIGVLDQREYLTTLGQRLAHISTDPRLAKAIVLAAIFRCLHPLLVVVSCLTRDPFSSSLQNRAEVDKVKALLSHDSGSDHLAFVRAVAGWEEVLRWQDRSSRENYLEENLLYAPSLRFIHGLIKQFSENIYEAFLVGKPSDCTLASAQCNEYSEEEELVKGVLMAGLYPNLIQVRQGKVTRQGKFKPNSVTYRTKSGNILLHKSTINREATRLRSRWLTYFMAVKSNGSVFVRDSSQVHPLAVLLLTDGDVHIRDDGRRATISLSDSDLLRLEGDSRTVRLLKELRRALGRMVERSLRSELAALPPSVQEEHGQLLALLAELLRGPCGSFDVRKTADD

Assay [2] has as its target T2, Eukaryotic translation initiation factor 5B (Homo sapiens, UniProt O60841).
T2 sequence (O60841 whole entry): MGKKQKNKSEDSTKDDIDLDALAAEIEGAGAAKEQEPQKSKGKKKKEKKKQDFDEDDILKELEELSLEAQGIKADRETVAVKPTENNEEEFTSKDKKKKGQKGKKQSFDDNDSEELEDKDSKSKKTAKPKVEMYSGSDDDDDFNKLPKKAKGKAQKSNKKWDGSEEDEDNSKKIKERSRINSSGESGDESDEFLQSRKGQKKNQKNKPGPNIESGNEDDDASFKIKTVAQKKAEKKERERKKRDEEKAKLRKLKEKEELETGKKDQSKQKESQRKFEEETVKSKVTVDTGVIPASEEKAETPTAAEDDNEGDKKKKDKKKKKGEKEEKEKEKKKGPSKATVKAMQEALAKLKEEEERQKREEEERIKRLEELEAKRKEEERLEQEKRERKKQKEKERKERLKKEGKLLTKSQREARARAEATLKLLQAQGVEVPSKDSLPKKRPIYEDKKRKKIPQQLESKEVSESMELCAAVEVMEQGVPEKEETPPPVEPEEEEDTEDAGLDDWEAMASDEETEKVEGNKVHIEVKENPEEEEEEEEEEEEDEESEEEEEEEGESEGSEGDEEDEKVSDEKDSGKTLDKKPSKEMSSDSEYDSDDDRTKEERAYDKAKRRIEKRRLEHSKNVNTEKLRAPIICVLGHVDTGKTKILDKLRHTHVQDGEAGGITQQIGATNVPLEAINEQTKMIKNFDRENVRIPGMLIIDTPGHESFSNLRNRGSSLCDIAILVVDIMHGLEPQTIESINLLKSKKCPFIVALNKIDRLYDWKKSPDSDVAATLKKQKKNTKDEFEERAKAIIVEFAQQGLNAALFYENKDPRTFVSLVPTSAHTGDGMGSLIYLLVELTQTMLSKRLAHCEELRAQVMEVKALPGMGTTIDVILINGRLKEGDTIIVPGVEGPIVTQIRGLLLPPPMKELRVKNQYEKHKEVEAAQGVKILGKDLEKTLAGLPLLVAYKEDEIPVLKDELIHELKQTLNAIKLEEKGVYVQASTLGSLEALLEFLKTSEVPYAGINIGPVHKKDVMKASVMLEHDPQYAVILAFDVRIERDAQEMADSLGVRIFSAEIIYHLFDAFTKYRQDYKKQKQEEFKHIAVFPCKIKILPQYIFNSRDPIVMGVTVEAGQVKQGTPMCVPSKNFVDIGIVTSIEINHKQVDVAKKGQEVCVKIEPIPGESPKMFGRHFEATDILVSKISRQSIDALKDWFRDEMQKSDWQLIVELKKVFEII

The target in assay [3] is Tyrosine-protein kinase Lck (Homo sapiens, UniProt P06239).
Assay [4] addresses Hepatocyte growth factor receptor (Homo sapiens, UniProt P08581).
The target of assay [5] is Dual specificity testis-specific protein kinase 2 (Homo sapiens, UniProt Q96S53).
Dual specificity testis-specific protein kinase 2, sequence (Q96S53 whole entry): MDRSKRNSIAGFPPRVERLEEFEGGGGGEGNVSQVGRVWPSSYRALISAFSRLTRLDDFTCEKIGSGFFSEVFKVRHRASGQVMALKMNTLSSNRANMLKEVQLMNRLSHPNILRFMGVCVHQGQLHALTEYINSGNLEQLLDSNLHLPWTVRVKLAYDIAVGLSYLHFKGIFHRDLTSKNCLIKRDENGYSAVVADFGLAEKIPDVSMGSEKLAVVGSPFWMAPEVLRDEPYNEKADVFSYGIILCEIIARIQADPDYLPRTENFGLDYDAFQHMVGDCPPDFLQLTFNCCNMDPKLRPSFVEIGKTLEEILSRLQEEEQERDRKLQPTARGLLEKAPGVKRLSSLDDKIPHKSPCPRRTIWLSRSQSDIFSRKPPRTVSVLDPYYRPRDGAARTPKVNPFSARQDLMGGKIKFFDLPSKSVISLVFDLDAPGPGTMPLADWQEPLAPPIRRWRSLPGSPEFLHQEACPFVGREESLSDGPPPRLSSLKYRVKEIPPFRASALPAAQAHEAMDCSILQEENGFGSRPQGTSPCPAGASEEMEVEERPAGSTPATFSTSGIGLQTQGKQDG
The target in assay [6] is G protein-coupled receptor kinase 6 (Homo sapiens, UniProt P43250).
G protein-coupled receptor kinase 6, sequence (P43250 whole entry): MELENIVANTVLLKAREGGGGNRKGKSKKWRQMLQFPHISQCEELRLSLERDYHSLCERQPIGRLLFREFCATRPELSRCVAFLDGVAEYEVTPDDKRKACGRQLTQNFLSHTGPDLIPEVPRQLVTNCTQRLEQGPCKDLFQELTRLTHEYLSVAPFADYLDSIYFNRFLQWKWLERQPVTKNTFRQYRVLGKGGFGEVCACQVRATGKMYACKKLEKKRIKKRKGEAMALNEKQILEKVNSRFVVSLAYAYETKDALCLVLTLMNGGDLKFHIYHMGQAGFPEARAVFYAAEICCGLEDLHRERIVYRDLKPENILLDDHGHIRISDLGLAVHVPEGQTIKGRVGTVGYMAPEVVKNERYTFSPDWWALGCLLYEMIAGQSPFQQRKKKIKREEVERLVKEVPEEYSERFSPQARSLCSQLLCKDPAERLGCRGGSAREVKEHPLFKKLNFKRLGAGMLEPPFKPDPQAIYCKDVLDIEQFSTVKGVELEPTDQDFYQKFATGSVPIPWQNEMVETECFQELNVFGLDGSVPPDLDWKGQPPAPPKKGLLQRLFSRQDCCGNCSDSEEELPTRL
A further assay has as its target Myosin-10 (Homo sapiens, UniProt P35580).
The target of assay [7] is Rho-associated protein kinase 1 (Homo sapiens, UniProt Q13464).
Rho-associated protein kinase 1, sequence (Q13464 whole entry, the tested form may be a part): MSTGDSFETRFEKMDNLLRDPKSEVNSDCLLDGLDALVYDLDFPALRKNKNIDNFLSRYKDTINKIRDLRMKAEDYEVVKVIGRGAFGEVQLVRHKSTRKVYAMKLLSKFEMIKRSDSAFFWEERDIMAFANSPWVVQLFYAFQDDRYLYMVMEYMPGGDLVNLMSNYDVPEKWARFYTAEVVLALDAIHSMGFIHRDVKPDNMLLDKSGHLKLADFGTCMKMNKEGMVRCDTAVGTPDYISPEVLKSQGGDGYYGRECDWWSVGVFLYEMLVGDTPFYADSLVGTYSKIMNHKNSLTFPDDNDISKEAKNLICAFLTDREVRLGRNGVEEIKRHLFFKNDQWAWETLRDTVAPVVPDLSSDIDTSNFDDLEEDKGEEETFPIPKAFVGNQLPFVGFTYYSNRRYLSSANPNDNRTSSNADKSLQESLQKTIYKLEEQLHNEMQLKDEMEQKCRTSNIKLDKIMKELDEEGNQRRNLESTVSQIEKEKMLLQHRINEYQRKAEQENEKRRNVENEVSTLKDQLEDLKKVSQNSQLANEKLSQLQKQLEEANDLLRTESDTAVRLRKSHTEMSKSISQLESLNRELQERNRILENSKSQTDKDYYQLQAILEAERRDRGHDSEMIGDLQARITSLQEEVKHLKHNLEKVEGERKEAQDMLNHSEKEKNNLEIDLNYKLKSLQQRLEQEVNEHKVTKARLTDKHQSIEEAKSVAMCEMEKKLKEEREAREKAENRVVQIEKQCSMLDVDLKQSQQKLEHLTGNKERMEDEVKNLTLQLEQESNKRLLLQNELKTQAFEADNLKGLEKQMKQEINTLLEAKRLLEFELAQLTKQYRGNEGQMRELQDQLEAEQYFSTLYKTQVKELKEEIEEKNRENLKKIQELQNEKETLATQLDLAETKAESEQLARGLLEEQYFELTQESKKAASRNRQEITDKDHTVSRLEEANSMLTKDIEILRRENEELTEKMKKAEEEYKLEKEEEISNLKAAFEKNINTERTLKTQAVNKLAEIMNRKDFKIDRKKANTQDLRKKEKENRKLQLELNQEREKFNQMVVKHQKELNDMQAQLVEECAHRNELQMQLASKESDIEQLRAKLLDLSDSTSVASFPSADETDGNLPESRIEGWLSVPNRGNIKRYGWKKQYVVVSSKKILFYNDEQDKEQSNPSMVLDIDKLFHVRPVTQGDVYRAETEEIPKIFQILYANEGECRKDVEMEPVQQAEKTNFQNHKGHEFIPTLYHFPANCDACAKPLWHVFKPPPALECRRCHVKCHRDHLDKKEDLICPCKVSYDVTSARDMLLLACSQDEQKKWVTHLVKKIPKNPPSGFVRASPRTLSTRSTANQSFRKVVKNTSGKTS
Assay [8] concerns the target Uncharacterized aarF domain-containing protein kinase 5 (Homo sapiens, UniProt Q3MIX3).
Assay [9] has as its target Dual specificity protein kinase CLK2 (Homo sapiens, UniProt P49760).
Note: in the data inactive means no Kd found up to 30 µM.

Dual specificity protein kinase CLK2, sequence (P49760 whole entry): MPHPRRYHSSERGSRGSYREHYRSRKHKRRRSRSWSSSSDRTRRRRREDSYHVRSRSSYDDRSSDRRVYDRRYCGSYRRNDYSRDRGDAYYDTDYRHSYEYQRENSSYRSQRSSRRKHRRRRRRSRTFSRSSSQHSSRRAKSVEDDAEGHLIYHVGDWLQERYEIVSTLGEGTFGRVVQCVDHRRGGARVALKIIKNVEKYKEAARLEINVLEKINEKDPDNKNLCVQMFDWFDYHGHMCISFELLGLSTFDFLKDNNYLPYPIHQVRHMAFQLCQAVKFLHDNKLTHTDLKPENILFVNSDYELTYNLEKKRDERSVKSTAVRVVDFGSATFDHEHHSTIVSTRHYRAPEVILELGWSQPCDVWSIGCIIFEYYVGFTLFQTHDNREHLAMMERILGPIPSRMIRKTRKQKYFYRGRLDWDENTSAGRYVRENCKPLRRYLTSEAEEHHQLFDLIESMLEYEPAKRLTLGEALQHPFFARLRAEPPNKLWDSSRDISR
Myosin-10, sequence (P35580 whole entry): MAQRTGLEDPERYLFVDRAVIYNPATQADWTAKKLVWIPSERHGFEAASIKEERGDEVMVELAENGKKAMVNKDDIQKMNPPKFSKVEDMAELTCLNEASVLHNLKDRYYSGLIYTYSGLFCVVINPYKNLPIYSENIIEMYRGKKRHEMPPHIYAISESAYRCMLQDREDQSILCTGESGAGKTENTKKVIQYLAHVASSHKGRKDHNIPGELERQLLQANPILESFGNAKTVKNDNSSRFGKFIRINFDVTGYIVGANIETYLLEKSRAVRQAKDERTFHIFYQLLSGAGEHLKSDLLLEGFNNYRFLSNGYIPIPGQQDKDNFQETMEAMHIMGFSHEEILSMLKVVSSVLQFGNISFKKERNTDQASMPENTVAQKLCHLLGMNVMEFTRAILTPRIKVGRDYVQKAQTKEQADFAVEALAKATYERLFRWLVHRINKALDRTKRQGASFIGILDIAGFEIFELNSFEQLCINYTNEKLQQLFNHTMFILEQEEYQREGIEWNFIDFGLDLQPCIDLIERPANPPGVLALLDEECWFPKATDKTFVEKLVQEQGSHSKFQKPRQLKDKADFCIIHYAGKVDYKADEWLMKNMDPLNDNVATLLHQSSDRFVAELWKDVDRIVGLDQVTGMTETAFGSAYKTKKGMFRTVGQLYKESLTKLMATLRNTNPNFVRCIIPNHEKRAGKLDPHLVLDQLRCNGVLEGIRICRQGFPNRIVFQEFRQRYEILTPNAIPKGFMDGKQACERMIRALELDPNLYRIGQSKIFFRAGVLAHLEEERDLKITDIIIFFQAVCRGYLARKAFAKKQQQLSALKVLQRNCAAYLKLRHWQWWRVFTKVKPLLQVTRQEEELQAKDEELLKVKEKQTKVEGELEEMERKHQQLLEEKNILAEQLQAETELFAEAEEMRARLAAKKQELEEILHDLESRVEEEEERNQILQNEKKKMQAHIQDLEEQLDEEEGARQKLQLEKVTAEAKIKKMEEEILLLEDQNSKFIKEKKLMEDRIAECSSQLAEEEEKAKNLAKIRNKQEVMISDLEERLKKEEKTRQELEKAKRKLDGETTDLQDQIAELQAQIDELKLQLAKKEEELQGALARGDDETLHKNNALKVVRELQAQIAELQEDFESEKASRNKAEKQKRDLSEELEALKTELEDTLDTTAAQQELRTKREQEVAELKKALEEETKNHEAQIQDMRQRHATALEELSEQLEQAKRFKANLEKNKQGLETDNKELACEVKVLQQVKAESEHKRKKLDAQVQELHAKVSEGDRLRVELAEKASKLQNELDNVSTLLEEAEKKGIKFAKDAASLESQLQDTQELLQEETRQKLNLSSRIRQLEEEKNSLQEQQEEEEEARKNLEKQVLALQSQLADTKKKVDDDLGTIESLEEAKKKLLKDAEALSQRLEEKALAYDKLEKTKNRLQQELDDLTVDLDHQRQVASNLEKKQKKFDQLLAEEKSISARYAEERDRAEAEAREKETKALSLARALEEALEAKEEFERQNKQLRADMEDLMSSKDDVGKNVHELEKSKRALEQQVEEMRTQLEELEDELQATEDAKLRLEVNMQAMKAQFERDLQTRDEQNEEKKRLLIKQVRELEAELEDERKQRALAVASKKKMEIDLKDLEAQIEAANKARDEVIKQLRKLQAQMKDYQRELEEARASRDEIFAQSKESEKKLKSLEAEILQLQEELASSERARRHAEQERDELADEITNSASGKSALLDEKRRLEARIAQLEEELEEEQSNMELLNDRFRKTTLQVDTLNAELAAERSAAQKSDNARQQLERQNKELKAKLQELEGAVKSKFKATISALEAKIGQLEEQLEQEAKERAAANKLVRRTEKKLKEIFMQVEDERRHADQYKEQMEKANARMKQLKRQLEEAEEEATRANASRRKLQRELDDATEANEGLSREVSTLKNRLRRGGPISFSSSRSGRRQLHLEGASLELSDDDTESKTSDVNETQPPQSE

As a reminder, the Kd is the concentration at which binding is half-saturated. For `O=c1[nH]c([C@@H]2CCCN2)nc2c1oc1ccc(Cl)cc12`, the Kd in [1], in assay [2], in assay [3] and in assay [4] was > 30 µM (inactive) throughout.
For the molecule `O=C(O)c1ccc2c(c1)nc(Nc1cccc(Cl)c1)c1ccncc12` [SILMITASERTIB], the Kd in assay [3], in [4] and in assay [5] was > 30 µM (inactive) throughout.
As to `C[C@@]1(C(=O)Nc2ccc(F)nc2)CCCN1c1nc(Nc2cc(C3CC3)n[nH]2)c2cccn2n1` [BMS-754807], the Kd in assay [2], in [6] and in [5] was > 30 µM (inactive) in each case.
With `CC[C@@](C)(Nc1ccnc(-c2c[nH]c3ncccc23)n1)C(=O)NCC(F)(F)F` [DECERNOTINIB], the Kd in assay [1] was > 30 µM (inactive); in assay [3], > 30 µM (inactive); in [4] it was 0.094 µM; at Myosin-10 it was > 30 µM (inactive); in assay [7], 13.5 µM (active).
For the molecule `CCN1CCN(Cc2ccc(Nc3ncc(F)c(-c4cc(F)c5nc(C)n(C(C)C)c5c4)n3)nc2)CC1` [ABEMACICLIB], the Kd in assay [8], in assay [2], in assay [3], in assay [4] and in assay [7] was > 30 µM (inactive) throughout.
Regarding `COc1cc2c(N3CCN(C(=O)Nc4ccc(OC(C)C)cc4)CC3)ncnc2cc1OCCCN1CCCCC1` [TANDUTINIB], the Kd (in assay [2]; in [6]; at Myosin-10; in assay [5]) was > 30 µM (inactive) each time.
For the molecule `C[C@@H]1COC(Nc2ccc3ncnc(Nc4ccc(OCc5nccs5)c(Cl)c4)c3c2)=N1` [VARLITINIB], the Kd in [9], in assay [1], in assay [6], in assay [3], in [4] and in assay [7] was > 30 µM (inactive) throughout. The Kd in assay [5] was > 30 µM (inactive).
For `C=CCN(/C=C1/C(=O)O[C@H](COC)[C@@]2(C)C1=C(O)C(=O)C1=C2[C@H](OC(C)=O)C[C@]2(C)C(=O)CC[C@@H]12)CC=C` [SONOLISIB], the Kd (in [3]; in [4]; at Myosin-10; in [7]) was > 30 µM (inactive) each time.
As to `CCN(CCCOc1ccc2c(Nc3cc(CC(=O)Nc4cccc(F)c4)n[nH]3)ncnc2c1)CCOP(=O)(O)O` [BARASERTIB], the Kd in [2] and in [5] was > 30 µM (inactive) in each case.
As for `COc1cccc(Nc2ncnn3ccc(CN4CC[C@@H](N)[C@H](O)C4)c23)c1` [BMS-690514], the Kd was 0.514 µM (active) in [3] and > 30 µM (inactive) in [5].
With `FC(F)(F)c1ccc(CNc2ccc(Cc3c[nH]c4ncc(Cl)cc34)cn2)cn1` [PEXIDARTINIB], the Kd (in assay [9]; in [1]; in assay [6]; in assay [3]; in assay [4]; at Myosin-10) was > 30 µM (inactive) each time. The Kd in [7] is > 30 µM (inactive).
With `CC(C)(O)CC(=O)NCCn1ccc2ncnc(Nc3ccc(Oc4cccc(C(F)(F)F)c4)c(Cl)c3)c21` [TAK-285], the Kd in [1] and in [7] was > 30 µM (inactive) each time.
With `CCc1nc(C(N)=O)c(Nc2ccc(N3CCC(N4CCN(C)CC4)CC3)c(OC)c2)nc1NC1CCOCC1` [GILTERITINIB], the Kd in assay [1], in assay [2], in [3] and in [7] was > 30 µM (inactive) in each case.
Turning to `CN(C)C/C=C/C(=O)Nc1cc2c(Nc3ccc(F)c(Cl)c3)ncnc2cc1O[C@H]1CCOC1` [AFATINIB], the Kd (in assay [8]; in [1]; on Myosin-10) was > 30 µM (inactive) each time.
As to `CCOc1ccn(-c2ccc(F)cc2)c(=O)c1C(=O)Nc1ccc(Oc2ccnc(N)c2Cl)c(F)c1` [BMS-777607], the Kd is > 30 µM (inactive) in assay [1]; > 30 µM (inactive) in assay [2]; 0.011 µM (active) in [4]; > 30 µM (inactive) on Myosin-10; > 30 µM (inactive) in [7].
With `COc1cc(F)c(F)c(Nc2ccc(I)cc2F)c1NS(=O)(=O)C1(C[C@H](O)CO)CC1` [REFAMETINIB], the Kd in assay [9], in [1], in assay [2], in [6], in assay [3] and in assay [4] was > 30 µM (inactive) throughout. Also, the Kd in [7] was > 30 µM (inactive).
As to `Cc1c(NC(=O)OC[C@@H]2COCCN2)cn2ncnc(Nc3ccc4c(cnn4Cc4cccc(F)c4)c3)c12` [AC-480], the Kd (in assay [3]; in [4]; on Myosin-10; in assay [7]) was > 30 µM (inactive) in each case.
With `C[C@]1(O)C[C@@H](c2nc(-c3ccc4ccc(-c5ccccc5)nc4c3)c3c(N)nccn32)C1` [LINSITINIB], the Kd (in assay [1]; in [2]; in [6]; at Myosin-10; in assay [5]) was > 30 µM (inactive) in each case.
As to `CNC(=O)c1cc(COc2nnc(Nc3ccc(Cl)cc3)c3ccoc23)ccn1` [TELATINIB], the Kd in assay [9], in assay [2], in [6], in assay [3], in assay [4] and in [5] was > 30 µM (inactive) in each case.
